BigSolDB 2.1

CC[C@H](C)C(=O)O[C@H]1C[C@@H](C)C=C2C=C[C@H](C)[C@H](CC[C@@H]3C[C@@H](O)CC(=O)O3)[C@H]21
solubility (mole fraction) (in 2-butanone, 285.1 K): 0.00752
solubility (mole fraction) (in 2-butanone, 288.3 K): 0.00878
solubility (mole fraction) (in 2-butanone, 291.2 K): 0.00918
solubility (mole fraction) (in 2-butanone, 294.6 K): 0.0111
solubility (mole fraction) (in 2-butanone, 297.2 K): 0.0115
solubility (mole fraction) (in 2-butanone, 300.3 K): 0.0132
solubility (mole fraction) (in 2-butanone, 303.1 K): 0.0147
solubility (mole fraction) (in 2-butanone, 306.3 K): 0.0175
solubility (mole fraction) (in 2-butanone, 309.4 K): 0.0197
solubility (mole fraction) (in 2-butanone, 312.2 K): 0.0219
solubility (mole fraction) (in acetone, 285.1 K): 0.00831
solubility (mole fraction) (in acetone, 288.3 K): 0.00936
solubility (mole fraction) (in acetone, 291.2 K): 0.0104
solubility (mole fraction) (in acetone, 294.6 K): 0.0118
solubility (mole fraction) (in acetone, 297.2 K): 0.013
solubility (mole fraction) (in acetone, 300.3 K): 0.0146
solubility (mole fraction) (in acetone, 303.1 K): 0.0163
solubility (mole fraction) (in acetone, 306.3 K): 0.0183
solubility (mole fraction) (in acetone, 309.4 K): 0.0206
solubility (mole fraction) (in acetone, 312.2 K): 0.0228
solubility (mole fraction) (in ethyl acetate, 285.1 K): 0.00417
solubility (mole fraction) (in ethyl acetate, 288.3 K): 0.0047
solubility (mole fraction) (in ethyl acetate, 291.2 K): 0.00517
solubility (mole fraction) (in ethyl acetate, 294.6 K): 0.00586
solubility (mole fraction) (in ethyl acetate, 297.2 K): 0.00656
solubility (mole fraction) (in ethyl acetate, 300.3 K): 0.00706
solubility (mole fraction) (in ethyl acetate, 303.1 K): 0.00778
solubility (mole fraction) (in ethyl acetate, 306.3 K): 0.0087
solubility (mole fraction) (in ethyl acetate, 309.4 K): 0.00967
solubility (mole fraction) (in ethyl acetate, 312.2 K): 0.0108
solubility (mole fraction) (in isobutyl acetate, 285.1 K): 0.00345
solubility (mole fraction) (in isobutyl acetate, 288.3 K): 0.00383
solubility (mole fraction) (in isobutyl acetate, 291.2 K): 0.00422
solubility (mole fraction) (in isobutyl acetate, 294.6 K): 0.0047
solubility (mole fraction) (in isobutyl acetate, 297.2 K): 0.00504
solubility (mole fraction) (in isobutyl acetate, 300.3 K): 0.0057
solubility (mole fraction) (in isobutyl acetate, 303.1 K): 0.00627
solubility (mole fraction) (in isobutyl acetate, 306.3 K): 0.00702
solubility (mole fraction) (in isobutyl acetate, 309.4 K): 0.00777
solubility (mole fraction) (in isobutyl acetate, 312.2 K): 0.00864
solubility (mole fraction) (in isopropyl acetate, 285.1 K): 0.00335
solubility (mole fraction) (in isopropyl acetate, 288.3 K): 0.00372
solubility (mole fraction) (in isopropyl acetate, 291.2 K): 0.00412
solubility (mole fraction) (in isopropyl acetate, 294.6 K): 0.00459
solubility (mole fraction) (in isopropyl acetate, 297.2 K): 0.00497
solubility (mole fraction) (in isopropyl acetate, 300.3 K): 0.00553
solubility (mole fraction) (in isopropyl acetate, 303.1 K): 0.00606
solubility (mole fraction) (in isopropyl acetate, 306.3 K): 0.00677
solubility (mole fraction) (in isopropyl acetate, 309.4 K): 0.00756
solubility (mole fraction) (in isopropyl acetate, 312.2 K): 0.00832
solubility (mole fraction) (in methyl acetate, 285.1 K): 0.00309
solubility (mole fraction) (in methyl acetate, 288.3 K): 0.0034
solubility (mole fraction) (in methyl acetate, 291.2 K): 0.00376
solubility (mole fraction) (in methyl acetate, 294.6 K): 0.00417
solubility (mole fraction) (in methyl acetate, 297.2 K): 0.00447
solubility (mole fraction) (in methyl acetate, 300.3 K): 0.00515
solubility (mole fraction) (in methyl acetate, 303.1 K): 0.00543
solubility (mole fraction) (in methyl acetate, 306.3 K): 0.00619
solubility (mole fraction) (in methyl acetate, 309.4 K): 0.00674
solubility (mole fraction) (in methyl acetate, 312.2 K): 0.00746
solubility (mole fraction) (in n-butyl acetate, 285.1 K): 0.00407
solubility (mole fraction) (in n-butyl acetate, 288.3 K): 0.00452
solubility (mole fraction) (in n-butyl acetate, 291.2 K): 0.00494
solubility (mole fraction) (in n-butyl acetate, 294.6 K): 0.00557
solubility (mole fraction) (in n-butyl acetate, 297.2 K): 0.00611
solubility (mole fraction) (in n-butyl acetate, 300.3 K): 0.00679
solubility (mole fraction) (in n-butyl acetate, 303.1 K): 0.00748
solubility (mole fraction) (in n-butyl acetate, 306.3 K): 0.00836
solubility (mole fraction) (in n-butyl acetate, 309.4 K): 0.00931
solubility (mole fraction) (in n-butyl acetate, 312.2 K): 0.0103
solubility (mole fraction) (in n-propyl acetate, 285.1 K): 0.00395
solubility (mole fraction) (in n-propyl acetate, 288.3 K): 0.00438
solubility (mole fraction) (in n-propyl acetate, 291.2 K): 0.00481
solubility (mole fraction) (in n-propyl acetate, 294.6 K): 0.00544
solubility (mole fraction) (in n-propyl acetate, 297.2 K): 0.00587
solubility (mole fraction) (in n-propyl acetate, 300.3 K): 0.00658
solubility (mole fraction) (in n-propyl acetate, 303.1 K): 0.00724
solubility (mole fraction) (in n-propyl acetate, 306.3 K): 0.00803
solubility (mole fraction) (in n-propyl acetate, 309.4 K): 0.00901
solubility (mole fraction) (in n-propyl acetate, 312.2 K): 0.00997
solubility (mole fraction) (in sec-butyl acetate, 285.1 K): 0.00365
solubility (mole fraction) (in sec-butyl acetate, 288.3 K): 0.00401
solubility (mole fraction) (in sec-butyl acetate, 291.2 K): 0.00446
solubility (mole fraction) (in sec-butyl acetate, 294.6 K): 0.005
solubility (mole fraction) (in sec-butyl acetate, 297.2 K): 0.00545
solubility (mole fraction) (in sec-butyl acetate, 300.3 K): 0.00606
solubility (mole fraction) (in sec-butyl acetate, 303.1 K): 0.00666
solubility (mole fraction) (in sec-butyl acetate, 306.3 K): 0.00745
solubility (mole fraction) (in sec-butyl acetate, 309.4 K): 0.0083
solubility (mole fraction) (in sec-butyl acetate, 312.2 K): 0.00915
solubility (mole fraction) (in tert-butyl acetate, 285.1 K): 0.00275
solubility (mole fraction) (in tert-butyl acetate, 288.3 K): 0.00314
solubility (mole fraction) (in tert-butyl acetate, 291.2 K): 0.00346
solubility (mole fraction) (in tert-butyl acetate, 294.6 K): 0.00386
solubility (mole fraction) (in tert-butyl acetate, 297.2 K): 0.0042
solubility (mole fraction) (in tert-butyl acetate, 300.3 K): 0.00479
solubility (mole fraction) (in tert-butyl acetate, 303.1 K): 0.0051
solubility (mole fraction) (in tert-butyl acetate, 306.3 K): 0.00569
solubility (mole fraction) (in tert-butyl acetate, 309.4 K): 0.00638
solubility (mole fraction) (in tert-butyl acetate, 312.2 K): 0.00693
